Reference: article PMC8199339, “Propellanes as Rigid Scaffolds for the Stereodefined Attachment of σ-Pharmacophoric Structural Elements to Achieve σ Affinity” (International Journal of Molecular Sciences, 2021)
Read-outs that look alike come from different tables or passages of the source.

Experiments:
σ1 receptor [1] = target: T1, σ1 receptor (Cavia porcellus, UniProt Q60492); experiment: σ1 receptor binding assay, radioligand [3H]-(+)-pentazocine, guinea pig brain membrane preparation; conditions: for inhibition at 1 µM / inhibition of the radioligand binding, σ1: test compound concentration of 1 µM; for inhibition of the radioligand binding, σ1: 1 µM
T1 construct: thawed membrane preparation of guinea pig brain; tissue Harlan-Winkelmann, Borchen, Germany (animal organs); host or cells: guinea pig brain membrane homogenate
T1 sequence (Q60492 whole entry): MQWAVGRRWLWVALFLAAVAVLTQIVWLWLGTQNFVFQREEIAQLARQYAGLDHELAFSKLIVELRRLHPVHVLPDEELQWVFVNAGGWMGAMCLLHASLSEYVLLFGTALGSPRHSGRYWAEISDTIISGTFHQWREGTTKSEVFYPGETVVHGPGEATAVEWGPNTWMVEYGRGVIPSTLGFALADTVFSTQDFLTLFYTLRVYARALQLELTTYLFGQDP

σ2 receptor [2] = target: T2, σ2 receptor (Rattus norvegicus, UniProt Q5U3Y7); experiment: σ2 receptor binding assay, radioligand [3H]di-o-tolylguanidine, rat liver membrane preparation
T2 construct: The thawed rat liver membrane preparation; tissue Harlan-Winkelmann, Borchen, Germany (animal organs); host or cells: rat liver membrane homogenate
T2 sequence (Q5U3Y7 1-176): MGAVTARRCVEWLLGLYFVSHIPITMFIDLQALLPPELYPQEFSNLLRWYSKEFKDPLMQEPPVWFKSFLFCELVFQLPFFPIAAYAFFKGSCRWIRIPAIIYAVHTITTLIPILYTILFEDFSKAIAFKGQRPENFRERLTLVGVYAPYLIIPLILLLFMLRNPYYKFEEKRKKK

σ1 receptor [3] = conditions: cited from earlier work; for Ki: Figure 2
σ2 receptor [4] = conditions: cited from earlier work; for Ki: Figure 2
σ2 receptor [5] = target: T2, σ2 receptor; conditions: cited from earlier work; for inhibition of the radioligand binding, σ2: test compound concentration of 1 µM, already reported, 1 µM
σ1 receptor [6] = target: T1, σ1 receptor; conditions: cited from earlier work
[7] = [3H]-(+)-pentazocine, guinea pig brain, mean of three experiments (± SEM), values without SEM mean of two, read-out: Ki (nM) σ1
[8] = test compound concentration of 1 µM
[9] = azapropellanes 9, already reported

SMILES | melting point [°C] | inhibition at 1 µM (σ2 receptor [2]; [8]) [%] | inhibition at 1 µM (σ1 receptor [1]) [%] | other results
C1CCC(CNC2CC34CCCCC3(CCC4)C2)CC1 (stereo not drawn) [compound 18, syn- and anti-N-Cyclohexylmethyl[4.3.3]propellan-8-amine] | 108 to 111 |  |  | Ki (σ1 receptor [1]; Ki (nM) σ1): 34 ± 11 nM; Ki (σ2 receptor [2]; read-out: Ki (nM) σ2): 101 nM
CN(C)c1ccc(CNC2CC34CCCCC3(CCC4)C2)cc1 (stereo not drawn) [compound 17, syn- and anti-N-(4-(Dimethylaminobenzyl)-[4.3.3]propellan-8-amine] | 89 to 91 | 1 |  | Ki (σ1 receptor [1]; [7]): 1200 nM
O=C(Nc1ccc(F)c(F)c1)NC1CC23CCCCC2(CCC3)C1 (stereo not drawn) [23d, 1-(3,4-Difluorophenyl)-3-(syn- and anti-[4.3.3]propellan-8-yl)urea] | 168 to 175 | 0 | 0 | 
COc1ccc(C)cc1NC(=O)OC1CC2CCCC(C1)N2Cc1ccccc1 (centres unmarked) [compound 3] |  |  |  | Ki (σ1 receptor [3]): 92.5 nM; Ki (σ2 receptor [4]): 3.1 nM; preference for the σ2 receptor (σ2 receptor [4]; σ2 over σ1): 30 fold
FCC[C@@H]1OC2(CCN(Cc3ccccc3)CC2)c2ccccc21 [compound 1, (S)-fluspidine] |  |  |  | Ki (σ1 receptor [3]): 2.3 nM; selectivity for σ1 against/over the σ2 subtype (σ1 receptor [3]): 300 fold; Ki (σ2 receptor [4]): 897 nM
COc1ccc(C)cc1NC(=O)NC1CC23CCCCC2(CCC3)C1 (stereo not drawn) [23c, 1-(2-Methoxy-5-methylphenyl)-3-(syn- and anti-[4.3.3]propellan-8-yl)urea] | 215 to 220 | 0 | 0 | 
O=C(NC1CCCCC1)NC1CC23CCCCC2(CCC3)C1 (stereo not drawn) [23b, 1 -Cyclohexyl-3-(syn- and anti-[4.3.3]propellan-8-yl)urea] | 187 to 193 | 0 | 0 | 
O=C(Nc1ccc(F)c(F)c1)NC1CC23CCCCC2(CC(O)C3)C1 (mixture of isomers) [8-syn-26, 1-(3,4-Difluorophenyl)-3-(8-syn-11-syn- and 8-syn-11-anti-11-hydroxy[4.3.3]-propellan-8-yl)urea] | 171 to 178 | 0 | 10 | 
COc1ccc(CN2CC3CCCC2CN3Cc2ccccc2)cc1 (centres unmarked) [compound 2] |  |  |  | Ki (σ1 receptor [3]): 0.91 nM; selectivity for σ1 against/over the σ2 subtype (σ1 receptor [3]): more than 40 fold; Ki (σ2 receptor [4]): 39 nM
COc1ccc(C)cc1NC(=O)N(Cc1ccccc1)C1CC23CCCCC2(CC(=O)C3)C1 (stereo not drawn) [syn-21, 1 -Benzyl-3-(2-methoxy-5-methylphenyl)-1-(syn-11-oxo-[4.3.3]propellan-8-yl)urea] | 168 to 170 | 14 |  | inhibition of the radioligand binding, σ1 (σ1 receptor [1]): 13%
COc1ccc(C)cc1NC(=O)OC1CC23CCCCC2(CC(NCCCN)C3)C1 (stereo not drawn) [8-anti-4r, [(8-anti-11-anti and 8-anti-11-syn)-11-[(3-Aminopropyl)amino][4.3.3]propellan-8-yl] N-(2-methoxy-5-methylphenyl)carbamate] | 74 to 76 | 0 | 16 | 
COc1ccc(C)cc1NC(=O)OC1CC23CCCCC2(C1)CN(Cc1ccccc1)CC3 (stereo not drawn) [syn-5] |  |  |  | inhibition of the radioligand binding, σ2 (σ2 receptor [5]): 0%; inhibition of the radioligand binding, σ1 (σ1 receptor [6]; test compound concentration of 1 µM, already reported): 12%
c1ccc(CN2CC34CCCCC3(CCC4)C2)cc1 (centres unmarked) [9a] |  |  |  | Ki (σ2 receptor [5]; [9]): 190 nM; selectivity for the σ1 receptor over the σ2 receptor (σ1 receptor [1]; σ1 over σ2): at least 10 fold; Ki (σ1 receptor [6]; [9]): 17 ± 12 nM
O=C(Nc1ccccc1)NC1CC23CCCCC2(CCC3)C1 (stereo not drawn) [23a, 1 -Phenyl-3-(syn- and anti-[4.3.3]propellan-8-yl)urea] | 134 to 138 | 15 | 0 | 
OC1CC23CCCCC2(C1)CC(NCc1ccccc1)C3 (mixture of isomers) [11-anti-13, [(8-anti-11-anti and 8-anti-11-syn)-11-(Benzylamino)[4.3.3]propellan-8-ol] | 121 to 123 |  | 29 | Ki (σ2 receptor [2]; read-out: Ki (nM) σ2): 1070 nM
COc1ccc(C)cc1NC(=O)OC1CC23CCCCC2(CC(NCc2ccc(OC)c(OC)c2)C3)C1 (stereo not drawn) [8-anti-4b, [(8-anti-11-anti and 8-anti-11-syn)-11-(3,4-Dimethoxbenzylamino)[4.3.3]propellan-8-yl] N-(2-methoxy-5-methylphenyl)carbamate] |  | 1 | 6 | 
COc1ccc(C)cc1NC(=O)OC1CC23CCCCC2(CC(NCCc2c[nH]c4ccccc24)C3)C1 (stereo not drawn) [8-syn-4k, [(8-syn-11-syn and 8-syn-11-anti)-11-[(2-(Indol-3-yl)ethylamino][4.3.3]propellan-8-yl] N-(2-methoxy-5-methylphenyl)carbamate] |  |  |  | Ki (σ1 receptor [1]; [7]): 983 nM; Ki (σ2 receptor [2]; read-out: Ki (nM) σ2): 1400 nM
COc1ccc(C)cc1NC(=O)OC1CC23CCCCC2(C1)CN(Cc1ccccc1)CC3 (stereo not drawn) [anti-5] |  |  |  | inhibition of the radioligand binding, σ2 (σ2 receptor [5]): 8%; Ki (σ1 receptor [6]; propellanamines 4a and azapropellanes 5, already reported): 82 ± 54 nM
c1ccc2c(CCNC3CC45CCCCC4(CCC5)C3)c[nH]c2c1 (stereo not drawn) [compound 15, syn- and anti-N-[2-(Indol-3-yl)ethyl]-[4.3.3]propellan-8-amine] | 109 to 111 |  |  | Ki (σ1 receptor [1]; Ki (nM) σ1): 598 nM; Ki (σ2 receptor [2]): 974 nM
COc1ccc(C)cc1NC(=O)N(Cc1ccccc1)C1CC23CCCCC2(CC(=O)C3)C1 (stereo not drawn) [anti-21, 1 -Benzyl-3-(2-methoxy-5-methylphenyl)-1-(anti-11-oxo-[4.3.3]propellan-8-yl)urea] | 133 to 136 |  |  | inhibition of the radioligand binding, σ1 (σ1 receptor [1]): 5%; inhibition of the radioligand binding, σ2 (σ2 receptor [2]; test compound concentration of 1 µM, 1 µM): 12%
